The results in this text go back to US20100286145A1, “ISOPHTHALAMIDE DERIVATIVES INHIBITING BETA-SECRETASE ACTIVITY” (CoMentis, Inc., priority 2007, published 2010).

One test has as its target memapsin 2 (Homo sapiens, UniProt P56817). Nature of the test: Inhibition of memapsin 2 beta-secretase activity (fluorogenic substrate FS-2). To be noted: memapsin 2, pH 4, 37° C., 20 minutes pre-incubation; read-out: M2Ki. The test is classed as biochemical. The essentials: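 Kinetic fluorogenic assay: hydrolysis of the MCA/DNP-labelled APP Swedish-variant peptide FS-2 monitored as fluorescence rise at 37° C, pH 4, after 20 min enzyme–compound preincubation. Relative rates fitted with a tight-binding inhibitor model.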

Another test has as its target T1, memapsin 1 (Homo sapiens, UniProt Q9Y5Z0).
T1 sequence (Q9Y5Z0 63-518): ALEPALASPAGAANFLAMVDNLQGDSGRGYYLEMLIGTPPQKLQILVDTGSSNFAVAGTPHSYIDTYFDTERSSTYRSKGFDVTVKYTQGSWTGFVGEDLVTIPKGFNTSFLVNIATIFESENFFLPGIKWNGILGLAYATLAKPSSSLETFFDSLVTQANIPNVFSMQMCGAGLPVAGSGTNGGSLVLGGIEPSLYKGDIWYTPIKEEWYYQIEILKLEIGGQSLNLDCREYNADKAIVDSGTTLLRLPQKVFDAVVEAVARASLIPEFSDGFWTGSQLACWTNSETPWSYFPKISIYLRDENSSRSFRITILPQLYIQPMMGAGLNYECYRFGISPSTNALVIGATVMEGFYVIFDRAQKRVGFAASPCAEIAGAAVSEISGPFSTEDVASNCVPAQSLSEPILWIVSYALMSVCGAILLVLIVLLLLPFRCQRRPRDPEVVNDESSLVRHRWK
Nature of the test: Inhibition of memapsin 1 beta-secretase activity (substrate peptide ELDLAVEFWHDR, MALDI-TOF). The test is classed as biochemical. To be noted: read-out: M1Ki.

The target in another test is cathepsin D (Homo sapiens, UniProt P07339). Kind of test: Inhibition of cathepsin D activity (substrate peptide ELDLAVEFWHDR, MALDI-TOF). Format: biochemical. To be noted: read-out: CDKi.
cathepsin D, sequence (P07339 65-412, species assumed): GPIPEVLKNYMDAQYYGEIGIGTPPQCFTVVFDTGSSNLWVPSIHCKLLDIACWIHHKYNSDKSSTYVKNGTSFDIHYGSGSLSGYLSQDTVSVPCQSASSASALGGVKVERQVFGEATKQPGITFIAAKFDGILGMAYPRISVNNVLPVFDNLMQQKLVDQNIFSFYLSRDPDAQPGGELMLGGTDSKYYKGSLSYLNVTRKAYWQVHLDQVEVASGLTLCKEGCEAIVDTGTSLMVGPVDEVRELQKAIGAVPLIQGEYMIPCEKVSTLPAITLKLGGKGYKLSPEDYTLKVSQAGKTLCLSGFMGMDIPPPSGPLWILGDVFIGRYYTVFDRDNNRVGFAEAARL
In test [1] the test system is Aβ production in Chinese hamster ovary cells that over-express human APP695 with the London and Swedish mutations. Kind of test: Cellular Aβ IC50 determination (Aβ40 sandwich ELISA). Format: cell-based. To be noted: Cricetulus griseus; cellular Aβ production; read-out: IC50. The procedure, abridged: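 Aβ40 in media quantified by sandwich ELISA, normalized to control incubations and fitted with a 4-parameter IC50 model. Compounds dosed to a final concentration near 4 μM (0.4% DMSO) on CHO cells expressing human APP695 (London and Swedish mutants) seeded at 10% confluency.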
In general terms: ELISA stands for enzyme-linked immunosorbent assay.

memapsin 2, sequence (P56817 46-501): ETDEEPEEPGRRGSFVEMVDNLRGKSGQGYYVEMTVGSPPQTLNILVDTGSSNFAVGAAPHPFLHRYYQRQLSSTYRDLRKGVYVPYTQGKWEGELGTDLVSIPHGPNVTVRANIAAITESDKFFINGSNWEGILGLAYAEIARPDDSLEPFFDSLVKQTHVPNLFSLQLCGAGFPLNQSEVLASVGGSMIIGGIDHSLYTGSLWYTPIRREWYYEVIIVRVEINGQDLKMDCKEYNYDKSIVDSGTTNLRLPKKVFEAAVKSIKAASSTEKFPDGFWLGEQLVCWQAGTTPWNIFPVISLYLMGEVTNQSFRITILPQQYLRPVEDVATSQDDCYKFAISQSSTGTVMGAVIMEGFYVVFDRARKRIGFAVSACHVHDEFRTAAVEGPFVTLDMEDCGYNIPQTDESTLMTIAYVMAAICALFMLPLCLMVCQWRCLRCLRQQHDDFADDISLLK

What is called IC50 is the concentration at which inhibition is half-maximal. Take `C=Cc1cc(C(=O)N[C@@H](Cc2ccccc2)[C@H](O)CNCc2cccc(OC)c2)cc(C(=O)N(C)Cc2nc(C)cs2)c1` [Compound 21, N1-((2S,3R)-3-hydroxy-4-(3-methoxybenzylamino)-1-phenylbutan-2-yl)-N3-methyl-N3-((4-methylthiazol-2-yl)methyl)-5-vinylisophthalamide]: the Ki on memapsin 2 is less than 300 nM; at memapsin 1 it was more than 501 nM; on cathepsin D it was less than 300 nM. For the same compound, the IC50 in test [1] is less than 1000 nM.
On to `Cc1csc(CN(C(=O)c2cccc(C(=O)N[C@@H](Cc3ccccc3)[C@H](O)CNCc3cccc(C(F)(F)F)c3)c2)C2CC2)n1` [Compound 29, N1-cyclopropyl-N3-((2S,3R)-3-hydroxy-1-phenyl-4-(3-(trifluoromethyl)benzylamino)butan-2-yl)-N1-((4-methylthiazol-2-yl)methyl)isophthalamide], for which the Ki on memapsin 2 was less than 300 nM; on memapsin 1, 301 to 500 nM; at cathepsin D, less than 300 nM. In addition, the IC50 in test [1] is less than 1000 nM.
Consider `Cc1cc(C(=O)N[C@@H](Cc2ccccc2)[C@H](O)CNCc2cncc(C(C)C)c2)cc(C(=O)N(C)Cc2nc(C)cs2)c1` [Compound 32, N1-((2S,3R)-3-hydroxy-4-((5-isopropylpyridin-3-yl)methylamino)-1-phenylbutan-2-yl)-N3,5-dimethyl-N3-((4-methylthiazol-2-yl)methyl)isophthalamide], for which the Ki at memapsin 2, on memapsin 1 and on cathepsin D was less than 300 nM in each case. Moreover, in test [1], the half-maximal inhibitory concentration (IC50) is less than 1000 nM.
Turning to `Cc1csc(CN(C)C(=O)c2cccc(C(=O)N[C@@H](Cc3ccccc3)[C@H](O)CNCc3ccnc(C(C)C)c3)c2)n1` [Compound 33, N1-((2S,3R)-3-hydroxy-4-((2-isopropylpyridin-4-yl)methylamino)-1-phenylbutan-2-yl)-N3-methyl-N3-((4-methylthiazol-2-yl)methyl)isophthalamide], the Ki at memapsin 2 was less than 300 nM; at memapsin 1, 301 to 500 nM; on cathepsin D, less than 300 nM. Also, the 50% inhibitory concentration (IC50) in test [1] is less than 1000 nM.
For `COc1cc(C(=O)N[C@@H](Cc2ccccc2)[C@H](O)CNCc2cncc(C(C)C)c2)cc(C(=O)N(C)Cc2nc(C)cs2)c1` [Compound 40, N1-((2S,3R)-3-hydroxy-4-((5-isopropylpyridin-3-yl)methylamino)-1-phenylbutan-2-yl)-5-methoxy-N3-methyl-N3-((4-methylthiazol-2-yl)methyl)isophthalamide], the Ki at memapsin 2, on memapsin 1 and on cathepsin D was less than 300 nM in each case. In test [1], the IC50 was less than 1000 nM.
On to `Cc1cc(C(=O)N[C@@H](Cc2ccccc2)[C@H](O)CNCc2cncc(C(C)C)c2)cc(C(=O)N(Cc2nc(C)cs2)C2CC2)c1` [Compound 41, N1-cyclopropyl-N3-((2S,3R)-3-hydroxy-4-((5-isopropylpyridin-3-yl)methylamino)-1-phenylbutan-2-yl)-5-methyl-N1-((4-methylthiazol-2-yl)methyl)isophthalamide], for which the Ki on memapsin 2, on memapsin 1 and on cathepsin D was less than 300 nM in each case. In test [1], the IC50 is less than 1000 nM.
Turning to `COc1cccc(CNC[C@@H](O)[C@H](Cc2ccccc2)NC(=O)c2cc(C(=O)N(C)Cc3nc(C)cs3)cc(C3=NCCO3)c2)c1` [Compound 46, 5-(4,5-dihydrooxazol-2-yl)-N1-((2S,3R)-3-hydroxy-4-(3-methoxybenzylamino)-1-phenylbutan-2-yl)-N3-methyl-N3-((4-methylthiazol-2-yl)methyl)isophthalamide], the Ki at memapsin 2 is less than 300 nM; on memapsin 1, more than 501 nM; on cathepsin D, 301 to 500 nM. The IC50 in test [1] was less than 1000 nM.
With `C[C@@H](NC(=O)c1cc(C(=O)N[C@@H](Cc2ccccc2)[C@H](O)CNCc2cccc(O)c2)cc(N(C)S(C)(=O)=O)c1)c1ccccc1` [Compound 71, N1-((2S,3R)-3-hydroxy-4-(3-hydroxybenzylamino)-1-phenylbutan-2-yl)-5-(N-methylmethylsulfonamido)-N3-((R)-1-phenylethyl)isophthalamide], the values for the Ki on memapsin 2, on memapsin 1 and on cathepsin D were less than 300 nM, more than 501 nM and more than 501 nM, respectively. In addition, in test [1], the IC50 was less than 1000 nM.
As for `COc1cc(CNC[C@@H](O)[C@H](Cc2ccccc2)NC(=O)c2cccc(C(=O)N(C)Cc3nc(C)cs3)c2)cc(C(=O)O)c1` [Compound 72, 3-(((2R,3S)-2-hydroxy-3-(3-(methyl((4-methylthiazol-2-yl)methyl)carbamoyl)benzamido)-4-phenylbutylamino)methyl)-5-methoxybenzoic acid], the values for the Ki on memapsin 2, at memapsin 1 and on cathepsin D were less than 300 nM, more than 501 nM and more than 501 nM, respectively. The IC50 in test [1] is 1000 to 5000 nM.
As to `C[C@@H](NC(=O)c1cc(C(=O)N[C@@H](Cc2ccccc2)[C@H](O)CNCc2cncc(C(F)(F)F)c2)cc(N(C)S(C)(=O)=O)c1)c1ccccc1` [Compound 81, N1-((2S,3R)-3-hydroxy-1-phenyl-4-((5-(trifluoromethyl)pyridin-3-yl)methylamino)butan-2-yl)-5-(N-methylmethylsulfonamido)-N3-((R)-1-phenylethyl)isophthalamide], the figures for the Ki on memapsin 2, at memapsin 1 and on cathepsin D were less than 300 nM, less than 300 nM and more than 501 nM, respectively. For the same compound, in test [1], the IC50 was less than 1000 nM.
On to `Cc1csc([C@@H](C)N(C)C(=O)c2cccc(C(=O)N[C@@H](Cc3ccccc3)[C@H](O)CNCc3cncc(C(C)C)c3)c2)n1` [Compound 82, N1-((2S,3R)-3-hydroxy-4-((5-isopropylpyridin-3-yl)methylamino)-1-phenylbutan-2-yl)-N3-methyl-N3-((R)-1-(4-methylthiazol-2-yl)ethyl)isophthalamide], for which the Ki on memapsin 2 was less than 300 nM; on memapsin 1, 301 to 500 nM; at cathepsin D, 301 to 500 nM. In test [1], the IC50 is less than 1000 nM.
As to `C[C@@H](NC(=O)c1cc(C(=O)N[C@@H](Cc2ccccc2)[C@H](O)CNCc2cccc(Cl)c2)cc(N(C)S(C)(=O)=O)c1)c1ccccc1` [Compound 86, N1-((2S,3R)-4-(3-chlorobenzylamino)-3-hydroxy-1-phenylbutan-2-yl)-5-(N-methylmethylsulfonamido)-N3-((R)-1-phenylethyl)isophthalamide], the Ki was less than 300 nM on memapsin 2, less than 300 nM on memapsin 1 and 301 to 500 nM at cathepsin D. Moreover, in test [1], the IC50 is less than 1000 nM.
Turning to `C[C@@H](NC(=O)c1cc(C(=O)N[C@@H](Cc2ccccc2)[C@H](O)CNCc2cccc(I)c2)cc(N(C)S(C)(=O)=O)c1)c1ccccc1` [Compound 88, N1-((2S,3R)-3-hydroxy-4-(3-iodobenzylamino)-1-phenylbutan-2-yl)-5-(N-methylmethylsulfonamido)-N3-((R)-1-phenylethyl)isophthalamide], the Ki on memapsin 2, on memapsin 1 and on cathepsin D was less than 300 nM throughout. The half-inhibitory concentration (IC50) in test [1] was less than 1000 nM.
As for `C[C@@H](NC(=O)c1cc(C(=O)N[C@@H](Cc2ccccc2)[C@H](O)CNCc2cncc(C(C)(C)F)c2)cc(N(C)S(C)(=O)=O)c1)c1ccccc1` [Compound 89, N1-((2S,3R)-4-((5-(2-fluoropropan-2-yl)pyridin-3-yl)methylamino)-3-hydroxy-1-phenylbutan-2-yl)-5-(N-methylmethylsulfonamido)-N3-((R)-1-phenylethyl)isophthalamide], the Ki on memapsin 2, at memapsin 1 and at cathepsin D was less than 300 nM in each case. The 50% inhibitory concentration (IC50) in test [1] is less than 1000 nM.
